Experimental data published in patent US6177447A (Universiteit van Amsterdam, priority 1996, dated 2001).
pIC50, pKi: −log10 of the molar value. Entries after “also recorded” stand apart in the source; their conditions may differ. Where two headings read alike, the source gives them in different places.

How the values were obtained:
[1] = tested on: chitotriosidase; test: chitotriosidase secretion by cultured macrophages; format: cell-based, human
[2] = target: T1, lysosomal a-glucosidase (Homo sapiens, UniProt P10253); test: purified lysosomal a-glucosidase activity towards 4MU-a-glucoside; format: biochemical
[3] = target: T2, glucosylceramidase (Homo sapiens, UniProt Q9HCG7); test: glucosylceramidase activity towards 4MU-b-glucoside in conduritol B-epoxide pre-treated membrane suspension from human spleen; settings: for inhibition of glucosylceramidase, in words: comparison among N-alkyl derivatives
T2 sequence (Q9HCG7 1-927): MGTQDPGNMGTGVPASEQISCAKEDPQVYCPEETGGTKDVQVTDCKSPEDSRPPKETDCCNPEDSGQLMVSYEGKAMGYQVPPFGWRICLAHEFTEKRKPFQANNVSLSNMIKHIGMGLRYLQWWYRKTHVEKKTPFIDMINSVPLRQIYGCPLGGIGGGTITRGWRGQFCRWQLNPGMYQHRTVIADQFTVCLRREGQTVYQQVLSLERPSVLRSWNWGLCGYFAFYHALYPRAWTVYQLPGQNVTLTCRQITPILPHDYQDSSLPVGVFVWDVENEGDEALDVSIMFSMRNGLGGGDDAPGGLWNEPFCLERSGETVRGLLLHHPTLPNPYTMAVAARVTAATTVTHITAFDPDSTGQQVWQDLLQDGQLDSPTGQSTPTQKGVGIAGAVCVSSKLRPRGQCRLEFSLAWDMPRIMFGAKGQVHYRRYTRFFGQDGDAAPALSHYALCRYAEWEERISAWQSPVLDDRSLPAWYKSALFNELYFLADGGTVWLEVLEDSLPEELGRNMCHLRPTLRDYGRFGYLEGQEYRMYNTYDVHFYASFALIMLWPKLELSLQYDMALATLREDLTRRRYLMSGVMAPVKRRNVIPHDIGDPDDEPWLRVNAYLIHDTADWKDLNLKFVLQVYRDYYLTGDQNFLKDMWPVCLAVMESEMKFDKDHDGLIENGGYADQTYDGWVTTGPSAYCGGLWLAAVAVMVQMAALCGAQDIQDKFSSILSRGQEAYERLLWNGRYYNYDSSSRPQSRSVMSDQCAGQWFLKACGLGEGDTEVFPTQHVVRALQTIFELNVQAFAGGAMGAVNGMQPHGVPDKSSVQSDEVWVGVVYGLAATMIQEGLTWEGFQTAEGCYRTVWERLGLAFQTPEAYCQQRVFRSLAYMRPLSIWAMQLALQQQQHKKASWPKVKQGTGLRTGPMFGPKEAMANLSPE

[4] = target: T3, glucocerebrosidase (Homo sapiens, UniProt P04062); test: conduritol B-epoxide inhibitable glucocerebrosidase activity in membrane fraction from human spleen; format: biochemical; settings: membrane suspension, 4MU-b-glucoside, pH 5.2; read-out: apparent Ki GLUCOCEREBROSIDASE MEMBRANES
T3 sequence (P04062 40-536): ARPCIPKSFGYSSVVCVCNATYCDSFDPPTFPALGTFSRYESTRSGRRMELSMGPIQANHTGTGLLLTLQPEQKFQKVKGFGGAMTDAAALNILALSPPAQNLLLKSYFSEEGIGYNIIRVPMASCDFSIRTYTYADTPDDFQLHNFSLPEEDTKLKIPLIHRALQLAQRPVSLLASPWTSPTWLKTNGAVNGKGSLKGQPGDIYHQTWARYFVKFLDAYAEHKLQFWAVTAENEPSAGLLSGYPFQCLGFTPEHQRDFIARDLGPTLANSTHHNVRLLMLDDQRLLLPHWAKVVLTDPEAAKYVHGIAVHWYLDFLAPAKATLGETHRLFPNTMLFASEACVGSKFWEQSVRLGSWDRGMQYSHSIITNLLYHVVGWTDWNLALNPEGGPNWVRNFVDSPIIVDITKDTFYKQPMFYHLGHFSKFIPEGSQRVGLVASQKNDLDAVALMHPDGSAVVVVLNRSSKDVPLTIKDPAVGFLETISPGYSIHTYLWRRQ

[5] = target: T2, glucosylceramidase; test: glucosylceramidase activity in intact melanoma cells (4MU-b-glucoside, conduritol B-epoxide insensitive); format: cell-based; design: endogenous in cells
[6] = target: T3, glucocerebrosidase; test: glucocerebrosidase activity in intact melanoma cells (4MU-b-glucoside, conduritol B-epoxide sensitive); format: cell-based; design: the hydrolysis of 4MU-b-glucoside by cultured melanoma cells; endogenous in cells
[7] = target: T4, glucocerebrosidase (Ceredase) (Homo sapiens, UniProt P04062); test: activity of soluble human placental glucocerebrosidase (Ceredase) towards 4MU-b-glucoside; format: biochemical; settings: soluble enzyme, 0.25% sodium taurocholate, 0.1% Triton X-100, pH 5.2; read-out: apparent Ki GLUCOCEREBROSIDASE CEREDASE
T4 construct: purchased Genzyme Corp. Boston,USA; host or cells: human placenta
T4 sequence (P04062 40-536): T3 sequence (P04062 40-536)

[8] = target: T5, glycogen synthase (Rattus norvegicus, UniProt P17625); test: glycogen synthase in rat hepatocytes; format: cell-based; settings: at IC50 concentration for glucosylceramidase
T5 construct: endogenous in cells; host or cells: rat hepatocytes
T5 sequence (P17625 1-704): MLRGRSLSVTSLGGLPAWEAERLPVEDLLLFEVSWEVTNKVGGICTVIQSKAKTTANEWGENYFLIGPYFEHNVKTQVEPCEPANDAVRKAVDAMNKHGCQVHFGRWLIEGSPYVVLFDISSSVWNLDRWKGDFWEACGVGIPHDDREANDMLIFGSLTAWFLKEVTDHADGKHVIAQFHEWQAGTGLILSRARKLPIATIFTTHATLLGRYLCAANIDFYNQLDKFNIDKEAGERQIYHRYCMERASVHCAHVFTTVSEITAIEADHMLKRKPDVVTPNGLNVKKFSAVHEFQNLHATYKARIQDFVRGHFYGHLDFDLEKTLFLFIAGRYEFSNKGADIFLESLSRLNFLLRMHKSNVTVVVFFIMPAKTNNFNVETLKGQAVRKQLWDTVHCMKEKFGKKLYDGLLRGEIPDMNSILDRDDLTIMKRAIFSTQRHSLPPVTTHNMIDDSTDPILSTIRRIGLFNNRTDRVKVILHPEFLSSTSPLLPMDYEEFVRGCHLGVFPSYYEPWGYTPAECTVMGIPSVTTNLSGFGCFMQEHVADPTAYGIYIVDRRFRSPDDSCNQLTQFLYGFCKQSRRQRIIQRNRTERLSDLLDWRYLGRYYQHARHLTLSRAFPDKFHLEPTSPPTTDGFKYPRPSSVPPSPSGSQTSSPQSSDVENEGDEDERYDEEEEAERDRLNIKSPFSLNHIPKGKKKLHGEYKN

[9] = target: T1, lysosomal a-glucosidase; test: lysosomal a-glucosidase in cultured melanoma cells; format: cell-based; design: endogenous in cells; settings: at IC50 concentration for glucosylceramidase
[10] = target: T6, glucosylceramide synthase (Homo sapiens, UniProt Q16739); test: glucosylceramide synthase activity in cultured macrophages with C6-NBD ceramide; format: cell-based; design: glucosylceramide synthase activity in cultured macrophages was also determined; endogenous in cells; host or cells: cultured human macrophages; settings: presence of PDMP or PPMP
T6 sequence (Q16739 1-394): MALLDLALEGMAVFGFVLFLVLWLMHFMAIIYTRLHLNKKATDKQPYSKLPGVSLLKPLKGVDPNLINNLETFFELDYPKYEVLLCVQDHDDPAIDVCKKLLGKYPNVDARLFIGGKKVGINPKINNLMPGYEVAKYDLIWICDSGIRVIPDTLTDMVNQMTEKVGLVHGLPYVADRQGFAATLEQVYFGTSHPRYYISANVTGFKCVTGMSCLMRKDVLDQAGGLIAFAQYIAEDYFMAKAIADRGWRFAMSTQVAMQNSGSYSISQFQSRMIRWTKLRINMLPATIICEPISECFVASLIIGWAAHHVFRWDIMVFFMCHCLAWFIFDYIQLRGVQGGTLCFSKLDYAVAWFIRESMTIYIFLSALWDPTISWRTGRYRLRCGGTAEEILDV

[11] = read-out: IC50 GLUCOSYLCERAMIDASE
[12] = intact melanoma cells, read-out: IC50 GLUCOCEREBROSIDASE
[13] = read-out: apparent Ki GLUCOSYLCERAMIDASE, membrane suspension, 4MU-b-glucoside, pH 5.2, competitive inhibition assumed
[14] = 4MU-a-glucoside, pH 4.0, read-out: apparent Ki A-GLUCOSIDASE

Row | SMILES | pIC50 [6, 12] | pKi [2, 14] | pKi [4] | pKi [7] | pKi [3, 13] | inhibition of lysosomal a-glucosidase, in words [2] | also measured
1 | CCCCN1C[C@H](O)[C@@H](O)[C@H](O)[C@H]1CO [BUTYLDNJ, butyl-deoxynojirimycin] |  |  |  |  |  |  | activity at 0.5 µM ([1]; Homo sapiens, Macrophage, 96 h, 0.5 uM, 4 days, relative to no inhibitor (100%)): 68%; activity at 5 µM ([1]; Homo sapiens, Macrophage, 96 h, 5 uM, 4 days, relative to no inhibitor (100%)): 49%; activity at 50 µM ([1]; Homo sapiens, Macrophage, 96 h, 50 uM, 4 days, relative to no inhibitor (100%)): 28%; pKi [2]: 5.19
2 | CCCCCCN1C[C@H](O)[C@@H](O)[C@H](O)[C@H]1CO [N-hexyl-deoxynojirimycin, reference compound] |  |  |  |  |  |  | inhibition of glucosylceramidase, in words [3]: less potent inhibitor
3 | CC(C)CCC[C@@H](C)[C@H]1CC[C@H]2[C@@H]3CC=C4C[C@@H](OC(=O)CCCC(=O)N5C[C@H](O)[C@@H](O)[C@H](O)[C@H]5CO)CC[C@]4(C)[C@H]3CC[C@]12C [P9] |  | < 4.00 | < 4.00 | 4.29 | < 4.00 | very poor inhibitors | 
4 | CC(C)CCC[C@@H](C)[C@H]1CC[C@H]2[C@@H]3CC[C@H]4C[C@@H](OC(=O)CCCC(=O)N5C[C@H](O)[C@@H](O)[C@H](O)[C@H]5CO)CC[C@]4(C)[C@H]3CC[C@]12C [P13] |  | < 4.00 | < 4.00 | 4.95 | < 4.00 | very poor inhibitors | 
5 | O=C(CCCC(=O)N1C[C@H](O)[C@@H](O)[C@H](O)[C@H]1CO)Oc1cc2ccccc2c2ccccc12 [P16] |  |  | 6.36 | 4.94 |  | very poor inhibitors | pIC50 ([6]; read-out: IC50 GLUCOCEREBROSIDASE, intact melanoma cells): < 6.00; pKi ([2]; read-out: apparent Ki A-GLUCOSIDASE, 4MU-a-glucoside, pH 4.0): < 4.00
6 | OCC1C(O)C(O)C(O)CN1CCCCCOCC12CC3CC(CC(C3)C1)C2 (stereo not drawn) [P21, N-(5-adamantane-1-yl-methoxy-pentyl) deoxynojirimycin] |  |  |  |  |  |  | activity at 2.5 pM ([1]; Homo sapiens, Macrophage, 96 h, 0.0025 nM, 4 days, relative to no inhibitor (100%)): 105%; activity at 50 pM ([1]; Homo sapiens, Macrophage, 96 h, 0.05 nM, 4 days, relative to no inhibitor (100%)): 72%; activity at 0.001 µM ([1]; Homo sapiens, Macrophage, 96 h, 1 nM, 4 days, relative to no inhibitor (100%)): 64%; inhibition of glycogen synthase [8]: no inhibition; inhibition of lysosomal a-glucosidase [9]: no inhibition
7 | CCCCC(=O)N1C[C@H](O)[C@@H](O)[C@H](O)[C@H]1CO [PENTANOYLDNJ, N-pentanoyl DNJ, reference compound] | < 6.00 | 5.62 | 4.08 | 3.17 |  |  | pIC50 [5, 11]: 4.52; pKi [3]: 4.08
8 | CCCCCN1C[C@H](O)[C@@H](O)[C@H](O)[C@H]1CO [PENTYLDNJ, N-pentyl DNJ, reference compound] | < 6.00 |  | 5.07 | 3.60 |  |  | pIC50 ([5]; IC50 GLUCOSYLCERAMIDASE): 6.82; pKi [3]: 7.42; inhibition of glucosylceramidase, in words [3]: Optimal inhibition; pKi [2]: 5.43
9 | CCCCCCCCCCCCCCCC(=O)NC(CN1CCOCC1)C(O)c1ccccc1 (stereo not drawn) [PPMP, 1-phenyl-2-hexadecanoylamino-3-morpholino-1-propanol] |  |  |  |  |  |  | effect on chitotriosidase secretion ([1]; cultured macrophages, glucosylceramide synthase inhibited): does not result in reduced; also recorded: without effect; inhibition of glucosylceramide synthase activity [10]: potently
10 | CCCN1C[C@H](O)[C@@H](O)[C@H](O)[C@H]1CO [PROPYLDNJ, N-propyl DNJ, reference compound] |  |  | 3.48 | 3.26 |  |  | pIC50 ([5]; IC50 GLUCOSYLCERAMIDASE): 6.19; pIC50 [6]: < 6.00; pKi [3]: 6.91; pKi [2]: 5.03

Further lines, with some results ahead:

Row | pIC50 [6, 12] | pKi [2, 14] | SMILES | pKi [4] | pKi [7] | pKi [3, 13] | inhibition of lysosomal a-glucosidase, in words [2] | also measured
11 | 5.30 | < 4.00 | O=C(CCCC(=O)N1C[C@H](O)[C@@H](O)[C@H](O)[C@H]1CO)OCC12CC3CC(CC(C3)C1)C2 [P4] | 5.49 | 4.71 | 3.34 | very poor inhibitors | pIC50 [5, 11]: 3.70
12 | 5.10 | < 4.00 | O=C(CCCC(=O)N1C[C@H](O)[C@@H](O)[C@H](O)[C@H]1CO)OC12CC3CC(CC(C3)C1)C2 [P11] | 5.39 | 3.95 | 3.51 | very poor inhibitors | pIC50 [5, 11]: 3.70
